Results as given in US20160304957A1, “TREATMENT AND MODULATION OF GENE EXPRESSION AND SKIN AGING” (DSM NUTRITIONAL PRODUCTS LTD., priority 2006, published 2016).

Test system: HaCaT human keratinocytes
Assay: Affymetrix GeneChip microarray, transcriptional response to β-carotene and/or UVA
Assay type: cell-based
Method: The cell culture experiments were carried out as described. Briefly, a subclone of passage 65 HaCaT keratinocytes, selected for differentiation capacity, was used at passages 16 to 23 after subcloning. 2×10^5 cells were seeded per 60 millimeter dish. Starting the following day, the cells were pretreated for 2 days with β-carotene at 1.5 μM, a typical concentration in human plasma after moderate dietary supplementation)
β-carotene-containing medium was prepared as follows. Fresh all-E-β-carotene (DSM Nutritional Products, Kaiseraugst, Switzerland) stock solution in THF (containing 0.025% BHT; Fluka Chemie A G, Switzerland) was diluted 1:2 with ethanol and added to cell culture medium to a final concentration of 1.5 μM β-carotene. The solvent concentration in the medium was 0.5% for all treatments. β-carotene-containing medium was prepared fresh for the daily medium changes.
On day 3 of the experiment, the cells were irradiated with a Hönle sun lamp Sol 500 (270 kJ/m^2; Dr. Hönle, Germany).
Five independent, factorially designed cell irradiation experiments were analyzed by microarray hybridization. For each experiment, one chip was hybridized per treatment condition. GeneChip® analysis was done as described in [132], which is incorporated by reference, as if recited in full herein. Gene regulation by β-carotene and/or UVA was calculated relative to placebo.
Changes in gene expression were included in further analysis only if the change factor was […], and if unpaired t-tests yielded p values≦0.05. Upregulations by a […] are labeled bold, downregulations by a change factor of […] are labeled bold italics. (Table 1) To identify the pathways affected by the treatments functional information on the genes was retrieved from public literature databases.

CC1=C(/C=C/C(C)=C/C=C/C(C)=C/C=C/C=C(C)/C=C/C=C(C)/C=C/C2=C(C)CCCC2(C)C)C(C)(C)CCC1 [β-carotene, All-E-β-carotene]
NCF2; p67-phox; neutrophil oxidase factor (M32011) change factor (UVA and β-carotene 1.5 μM): −0.16 | NF-κB subunit (S78771) change factor (UVA and β-carotene 1.5 μM): 0.56 | NF-κB subunit (X61498) change factor (UVA and β-carotene 1.5 μM): 0.7 | NFκB; p50 (S76638) change factor (UVA and β-carotene 1.5 μM): 0.55 | NOL1; p120 nucleolar antigen (X55504) change factor (UVA and β-carotene 1.5 μM): 0.94 | NOTCH3 (U97669) change factor (UVA and β-carotene 1.5 μM): −1.37 | NOV (X96584) change factor (UVA and β-carotene 1.5 μM): 0.72 | NOXA (D90070) change factor (UVA and β-carotene 1.5 μM): 0.74 | NRF1 (L24123) change factor (UVA and β-carotene 1.5 μM): −0.65 | NRF2, subunit beta 1 (U13045) change factor (UVA and β-carotene 1.5 μM): −0.11 | OSR1; oxidative-stress responsive 1 (AB017642) change factor (UVA and β-carotene 1.5 μM): 0.59 | PAR-1; thrombin receptor (M62424) change factor (UVA and β-carotene 1.5 μM): −0.05 | PAR-2; proteinase activated receptor-2 (U34038) change factor (UVA and β-carotene 1.5 μM): 1.91 | PAR-2; proteinase activated receptor-2 (U34038, second entry) change factor (UVA and β-carotene 1.5 μM): 1.34 | PAR-2; proteinase activated receptor-2 (U67058) change factor (UVA and β-carotene 1.5 μM): 3.32 | PAR-4; protease-activated receptor 4 (AF055917) change factor (UVA and β-carotene 1.5 μM): −0.57 | RAIDD; death adaptor molecule (U79115) change factor (UVA and β-carotene 1.5 μM): −0.66 | RB1 (L49229) change factor (UVA and β-carotene 1.5 μM): −1.13 | RB2/p130 (X74594) change factor (UVA and β-carotene 1.5 μM): −0.85 | RETSDR1; retinal short-chain dehydrogenase/reductase (AF061741) change factor (UVA and β-carotene 1.5 μM): −0.06 | RPA; replication protein A 14 kda subunit (rpa) (L07493) change factor (UVA and β-carotene 1.5 μM): −0.52 | RXRα (U66306) change factor (UVA and β-carotene 1.5 μM): −0.61 | RXRα (X52773) change factor (UVA and β-carotene 1.5 μM): −0.57 | Requiem (AF001433) change factor (UVA and β-carotene 1.5 μM): 0.32 | SMAD 1 (U59423) change factor (UVA and β-carotene 1.5 μM): −0.57 | SMAD3 (U68019) change factor (UVA and β-carotene 1.5 μM): 0.01 | SMAD3 (U68019, second entry) change factor (UVA and β-carotene 1.5 μM): −0.09 | SMAD4 (U44378) change factor (UVA and β-carotene 1.5 μM): −0.67 | SMAD5 (U59913) change factor (UVA and β-carotene 1.5 μM): −0.84 | SMAD6 (AF035528) change factor (UVA and β-carotene 1.5 μM): −24.2 | SMAD7 (AF010193) change factor (UVA and β-carotene 1.5 μM): −0.63 | SMRT (U37146) change factor (UVA and β-carotene 1.5 μM): −1.22 | STK15; BTAK (AF011468) change factor (UVA and β-carotene 1.5 μM): −1.85 | TDAG51; PQ-rich protein; PHLDA1 (Z50194) change factor (UVA and β-carotene 1.5 μM): 6.19 | TGFβ; transforming growth factor β (X02812) change factor (UVA and β-carotene 1.5 μM): 0.46 | TIAR; nucleolysin tiar (M96954) change factor (UVA and β-carotene 1.5 μM): −0.08 | TIEG, EGRα (AF050110) change factor (UVA and β-carotene 1.5 μM): −0.11 | TLR3; toll-like receptor 3 (U88879) change factor (UVA and β-carotene 1.5 μM): −0.91 | TOP2; topoisomerase II (J04088) change factor (UVA and β-carotene 1.5 μM): −0.86 | TRADD; TNF receptor-1 associated protein (L41690) change factor (UVA and β-carotene 1.5 μM): −0.85 | TRAIL; TNF-related apoptosis inducing ligand (U37518) change factor (UVA and β-carotene 1.5 μM): −2.66 | TRIP14; ‘2-5’ oligoadenylate synthetase (AJ225089) change factor (UVA and β-carotene 1.5 μM): 0.67 | TRIP (U77845) change factor (UVA and β-carotene 1.5 μM): −1.35 | TSSC3 (AF035444) change factor (UVA and β-carotene 1.5 μM): 0.7 | TSSC3/IPL (AF001294) change factor (UVA and β-carotene 1.5 μM): 1.02 | VEGF (AF022375) change factor (UVA and β-carotene 1.5 μM): 0.78 | VEGF (AF024710) change factor (UVA and β-carotene 1.5 μM): 1.86 | VEGF (M63978) change factor (UVA and β-carotene 1.5 μM): 1.09 | VEGFR2; VEGF receptor 2; KDR; FLK-1kdr/flk-1 (AF035121) change factor (UVA and β-carotene 1.5 μM): −0.28 | WEE1 (X62048) change factor (UVA and β-carotene 1.5 μM): 0.05 | WNT5A (I20861) change factor (UVA and β-carotene 1.5 μM): −2.22 | WNT5A (I20861, second entry) change factor (UVA and β-carotene 1.5 μM): −3.34 | XRCC4 (U40622) change factor (UVA and β-carotene 1.5 μM): −0.01 | bFGF; basic fibroblast growth factor; FGF2 (M27968) change factor (UVA and β-carotene 1.5 μM): 0.82 | bilirubin udp-glucuronosyltransferase isozyme 2 (M57951) change factor (UVA and β-carotene 1.5 μM): −0.66 | bullous pemphigoid autoantigen bp180 (M91669) change factor (UVA and β-carotene 1.5 μM): −0.57 | c-myc (V00568) change factor (UVA and β-carotene 1.5 μM): 3.22 | c-myc (V00568, second entry) change factor (UVA and β-carotene 1.5 μM): 2.45 | c-myc binding protein (mbp-1) (M55914) change factor (UVA and β-carotene 1.5 μM): 0.54 | caspase 2, ICH-1S (U13022) change factor (UVA and β-carotene 1.5 μM): −0.62 | caspase 7 (U67319) change factor (UVA and β-carotene 1.5 μM): 0.31 | ceruloplasmin (ferroxidase) (M13699) change factor (UVA and β-carotene 1.5 μM): 1 | collagen type IV, α-2 (COL4A2) (X05610) change factor (UVA and β-carotene 1.5 μM): −0.98 | collagen type IV, α-5 (COL4A5) (M58526) change factor (UVA and β-carotene 1.5 μM): −1.16 | collagen type IV, α-6 (COL4A6) (D21337) change factor (UVA and β-carotene 1.5 μM): −0.71 | collagen type VII, α-1 (COL7A1) (L02870) change factor (UVA and β-carotene 1.5 μM): −0.83 | connexin 31 (AF099730) change factor (UVA and β-carotene 1.5 μM): 2.3 | connexin 45 (U03493) change factor (UVA and β-carotene 1.5 μM): 0.26 | coproporphyrinogen oxidase (D16611) change factor (UVA and β-carotene 1.5 μM): −0.7 | cyclin E2 (AF091433) change factor (UVA and β-carotene 1.5 μM): 0.26 | cyclin E (M73812) change factor (UVA and β-carotene 1.5 μM): 1.75 | desmocollin type 4 (D17427) change factor (UVA and β-carotene 1.5 μM): −1.71 | ferritin heavy chain (L20941) change factor (UVA and β-carotene 1.5 μM): 0.59 | frizzled-2 (I37882) change factor (UVA and β-carotene 1.5 μM): −1.38 | frizzled-6 (AB012911) change factor (UVA and β-carotene 1.5 μM): −1.16 | haemochromatosis protein (hla-h) (U60319) change factor (UVA and β-carotene 1.5 μM): −0.61 | hsp40; heat shock protein 40 (U40992) change factor (UVA and β-carotene 1.5 μM): −0.07 | integrin α6 (X53586) change factor (UVA and β-carotene 1.5 μM): −0.76 | integrin α6b (S66213) change factor (UVA and β-carotene 1.5 μM): −0.46 | integrin α6b (S66213, second entry) change factor (UVA and β-carotene 1.5 μM): −0.73 | jagged2 (jag2) (AF029778) change factor (UVA and β-carotene 1.5 μM): −0.67 | keratin 2e (KRT2E); Keratin 2A (AF019084) change factor (UVA and β-carotene 1.5 μM): −0.69 | keratin 5 (M21389) change factor (UVA and β-carotene 1.5 μM): 0.81 | keratin 15 (J00124) change factor (UVA and β-carotene 1.5 μM): 0.96 | keratin 16 (M28439) change factor (UVA and β-carotene 1.5 μM): −0.38 | keratin 17 (Z19574) change factor (UVA and β-carotene 1.5 μM): 0.6 | mKI67a mrna (long type) for antigen of monoclonal antibody KI-67 (X65550) change factor (UVA and β-carotene 1.5 μM): −0.87 | mKI67a mrna (long type) for antigen of monoclonal antibody KI-67 (X65550, second entry) change factor (UVA and β-carotene 1.5 μM): −1.59 | ornithine decarboxylase (M33764) change factor (UVA and β-carotene 1.5 μM): 0.57 | ornithine decarboxylase (X16277) change factor (UVA and β-carotene 1.5 μM): 0.37 | p21; wild-type p53 activated fragment-1 (WAF1) (U03106) change factor (UVA and β-carotene 1.5 μM): 0.21 | p33; ING1b (AB024401) change factor (UVA and β-carotene 1.5 μM): 0.64 | p160ROCK (U43195) change factor (UVA and β-carotene 1.5 μM): −0.55 | protoporphyrinogen oxidase (D38537) change factor (UVA and β-carotene 1.5 μM): −0.54 | rTS α (X67098) change factor (UVA and β-carotene 1.5 μM): −0.47 | serpinB1 (M93056) change factor (UVA and β-carotene 1.5 μM): 0.57 | stimulator of Fe transport (AF020761) change factor (UVA and β-carotene 1.5 μM): 1.03 | thioredoxin reductase (X91247) change factor (UVA and β-carotene 1.5 μM): 1.48 | thymidylate synthase (X02308) change factor (UVA and β-carotene 1.5 μM): −0.56 | transferrin receptor (X01060) change factor (UVA and β-carotene 1.5 μM): 0.91 | uroporphyrinogen III synthase (J03824) change factor (UVA and β-carotene 1.5 μM): −0.61 | α topoisomerase truncated-form (L47276) change factor (UVA and β-carotene 1.5 μM): −0.81 | reduction of UVA induction of MMP-10 (β-carotene 1.5 μM, 5 hours after UVA): 30%
